Experimental data from patent US7226931B2, “(R/S) rifamycin derivatives, their preparations and pharmaceutical compositions” (priority 2004, dated 2007).
Converted amounts (≈) assume the structure as drawn. Read-outs that look alike come from different tables or passages of the source.

How the values were obtained:
S. aureus ATCC 29213 = test: MIC by microbroth dilution, S. aureus ATCC 29213 (rifS); type: cell-based, Staphylococcus aureus
Protocol: (§1) Representative compounds of the formula (I) were assayed for antimicrobial activity as follows: Minimum Inhibitory Concentrations (MICs) were determined by the microbroth dilution method as per NCCLS guidelines (National Committee for Clinical Laboratory Standards, 2000). All growth incubations were conducted at 37° C. Bacterial cultures were tested in the following bacteriological media: S. aureus, S. epidermidis in Cation-Adjusted Mueller-Hinton Broth, S. pneumoniae in THY Broth supplemented with 1 mg/mL catalase under 5% CO2 atmosphere, S. pyogenes in THY Broth, E. faecalis in BHI Broth, H. influenzae in BHI Broth supplemented with 0.75 μL of 1 mg/mL NAD and 150 μL of 1 mg/ml hematin per 5 mL.
(§2) S. aureus ATCC 29213, S. epidermidis ATCC 12228, S. pneumoniae ATCC6303, S. pyogenes ATCC 19615 and E. faecalis ATCC 29212 are rifampin-susceptible Gram-positive strains. […] H. influenzae ATCC 10211 is Gram-negative bacteria.

[1] = system: S. aureus ATCC 29213 RpoB^D417Y; test: microbe, parasite or virus in culture; type: cell-based; settings: Staphylococcus aureus
Protocol: as §1, §2

[2] = system: Staphylococcus aureus MT1222 gyrA^A116E grlB^S80F; test: MIC by microbroth dilution, quinolone-resistant S. aureus MT1222; type: cell-based
Protocol: as §1, §2

[3] = system: S. epidermidis ATCC 12228; test: MIC by microbroth dilution, S. epidermidis ATCC 12228; type: cell-based, Staphylococcus epidermidis
Protocol: as §1, §2

S. pneumoniae ATCC6303 = test: MIC by microbroth dilution, S. pneumoniae ATCC6303; type: cell-based, Streptococcus pneumoniae
Protocol: as §1, §2

S. pyogenes ATCC 19615 = test: MIC by microbroth dilution, S. pyogenes ATCC 19615; type: cell-based, Streptococcus pyogenes
Protocol: as §1, §2

H. influenzae ATCC 10211 = test: MIC by microbroth dilution, H. influenzae ATCC 10211; type: cell-based, Haemophilus influenzae
Protocol: as §1, §2

[4] = system: pathogenic microorganisms; test: Antibacterial activity, influence of linker chirality (R versus S); type: cell-based; settings: (R)- versus (S)-absolute configuration at the linker carbon
Protocol: as §1, with “As already mentioned, the compounds of formula I or their salts have antibacterial properties and activities against rifampin and quinolone resistant strains. […] Representative” for “Representative”
The antibacterial activities of the compounds of the formula (I) are influenced by the chirality of the linker.

[5] = MIC by microbroth dilution, panel of rifampin-susceptible Gram-positive strains; type: cell-based; settings: range over the rifampin-susceptible Gram-positive strains
Protocol: as §1, §2

[6] = Staphylococcus aureus, ATCC29213, read-out: Antimicrobial activity (MIC)
[7] = ATCC29213, read-out: Antimicrobial activity (MIC)
[8] = read-out: Antimicrobial activity (MIC)
[9] = Staphylococcus epidermidis, ATCC12228, read-out: Antimicrobial activity (MIC)
[10] = Streptococcus pneumoniae, ATCC6303, read-out: Antimicrobial activity (MIC)
[11] = Streptococcus pyogenes, ATCC19615, read-out: Antimicrobial activity (MIC)
[12] = Haemophilus influenzae ATCC10211, rifS, read-out: Antimicrobial activity (MIC)
[13] = Staphylococcus aureus ATCC29213, rifS, read-out: Antimicrobial activity (MIC)
[14] = Staphylococcus epidermidis ATCC12228, rifS, read-out: Antimicrobial activity (MIC)
[15] = Streptococcus pneumoniae ATCC6303, rifS, read-out: Antimicrobial activity (MIC)
[16] = Streptococcus pyogenes ATCC19615, rifS, read-out: Antimicrobial activity (MIC)

Compound | MIC (S. aureus ATCC 29213; [6]) | MIC [1, 7] | MIC [2, 8] | MIC [3, 9] | MIC (S. pneumoniae ATCC6303; [10]) | MIC (S. pyogenes ATCC 19615; [11]) | MIC (H. influenzae ATCC 10211; [12]) | antibacterial activity compared with example 2 ((S)-configuration) [4] | MIC (S. aureus ATCC 29213; [13]) | MIC ([1]; ATCC29213) | MIC [3, 14] | MIC (S. pneumoniae ATCC6303; [15]) | MIC (S. pyogenes ATCC 19615; [16]) | MIC (H. influenzae ATCC 10211; Haemophilus influenzae, ATCC10211, Gram-negative bacteria (H. influenzae ATCC 10211, 'these organisms'), read-out: MICs) | MIC [5] | MIC [2]
CO[C@H]1/C=C/O[C@@]2(C)Oc3c(C)c(O)c4c(O)c(c(/C=N/N5CCC(N(C)C6([C@@H]7CCN(c8c(F)cn9c(=O)c(C(=O)O)cc(C%10CC%10)c9c8C)C7)CC6)CC5)c(O)c4c3C2=O)NC(=O)/C(C)=C\C=C\[C@H](C)[C@H](O)[C@@H](C)[C@@H](O)[C@@H](C)[C@H](OC(C)=O)[C@@H]1C [Example 1, (R)-3-[(4-{1-[1-(3-Carboxy-1-cyclopropyl-7-fluoro-9-methyl-4-oxo-4H-quinolizine-8-yl)-pyrrolidin-3-yl-cyclopropyl]-methylamino}-piperidin-1-ylimino)-methylenyl]-rifamycin SV] | 0.06 µg/mL (≈ 0.0498 µM) | 0.5 µg/mL (≈ 0.415 µM) | 0.06 µg/mL (≈ 0.0498 µM) | 0.06 µg/mL (≈ 0.0498 µM) | 0.015 µg/mL (≈ 0.0124 µM) | 0.015 µg/mL (≈ 0.0124 µM) | 0.5 µg/mL (≈ 0.415 µM) | more active | – | – | – | – | – | – | – | –
CO[C@H]1/C=C/O[C@@]2(C)Oc3c(C)c(O)c4c(O)c(c(/C=N/N5CCN(C)CC5)c(O)c4c3C2=O)NC(=O)/C(C)=C\C=C\[C@H](C)[C@H](O)[C@@H](C)[C@@H](O)[C@@H](C)[C@H](OC(C)=O)[C@@H]1C [rifampin] | – | > 256 µg/mL | 0.004 µg/mL (≈ 0.00486 µM) | – | – | – | 0.24 µg/mL (≈ 0.292 µM) | – | 0.008 µg/mL (≈ 0.00972 µM) | > 256 µg/mL | 0.03 µg/mL (≈ 0.0365 µM) | 0.061 µg/mL (≈ 0.0741 µM) | 0.013 µg/mL (≈ 0.0158 µM) | 0.24 to 16 µg/mL (≈ 0.292 to 19.4 µM) | 0.008 to 1 µg/mL (≈ 0.00972 to 1.22 µM) | –
CO[C@H]1/C=C/O[C@@]2(C)Oc3c(C)c(O)c4c(O)c(c(/C=N/N5CCC(N(C)C6([C@H]7CCN(c8c(F)cn9c(=O)c(C(=O)O)cc(C%10CC%10)c9c8C)C7)CC6)CC5)c(O)c4c3C2=O)NC(=O)/C(C)=C\C=C\[C@H](C)[C@H](O)[C@@H](C)[C@@H](O)[C@@H](C)[C@H](OC(C)=O)[C@@H]1C [Example 2, (S)-3-[(4-{1-[1-(3-Carboxy-1-cyclopropyl-7-fluoro-9-methyl-4-oxo-4H-quinolizine-8-yl)-pyrrolidin-3-yl-cyclopropyl]-methylamino}-piperidin-1-ylimino)-methylenyl]-rifamycin SV] | 0.24 µg/mL (≈ 0.199 µM) | 8 µg/mL (≈ 6.64 µM) | 0.24 µg/mL (≈ 0.199 µM) | 0.12 µg/mL (≈ 0.0996 µM) | 0.015 µg/mL (≈ 0.0124 µM) | 0.03 µg/mL (≈ 0.0249 µM) | 0.5 µg/mL (≈ 0.415 µM) | – | – | – | – | – | – | – | – | –
O=C(O)c1cn(C2CC2)c2cc(N3CCNCC3)c(F)cc2c1=O [ciprofloxacin] | – | 0.25 µg/mL (≈ 0.754 µM) | 8 µg/mL (≈ 24.1 µM) | – | – | – | 0.008 µg/mL (≈ 0.0241 µM) | – | 0.25 µg/mL (≈ 0.754 µM) | – | 0.125 µg/mL (≈ 0.377 µM) | 1 µg/mL (≈ 3.02 µM) | 0.5 µg/mL (≈ 1.51 µM) | – | – | 8 µg/mL (≈ 24.1 µM)
